Measurements: PubChem BioAssay (NCI)
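Each compound was tested at five concentrations against cells in 96-well plates for 48 hours. TGI denotes the concentration required for complete inhibition of growth.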

Key:
Test in all cases: NCI tumour cell line growth inhibition, 48 h
HCT-15 colon = system: HCT-15 colon
EKVX NSCLC = system: EKVX NSCLC
SK-MEL-5 melanoma = system: SK-MEL-5 melanoma
T-47D breast = system: T-47D breast
RXF 393 renal = system: RXF 393 renal
KM12 colon = system: KM12 colon
NCI-H522 lung = system: NCI-H522 lung
UACC-62 melanoma = system: UACC-62 melanoma
A549 NSCLC = system: A549 NSCLC
SNB-75 CNS = system: SNB-75 CNS
HCC-2998 colon = system: HCC-2998 colon
SR leukemia = system: SR leukemia
SK-MEL-2 melanoma = system: SK-MEL-2 melanoma
HS 578T breast = system: HS 578T breast
SF-539 CNS = system: SF-539 CNS
XF 498 CNS = system: XF 498 CNS
CAKI-1 renal = system: CAKI-1 renal
SNB-19 CNS = system: SNB-19 CNS
K-562 leukemia = system: K-562 leukemia
BT-549 breast = system: BT-549 breast

SMILES	TGI (HCT-15 colon) [µM]	TGI (EKVX NSCLC) [µM]	TGI (SK-MEL-5 melanoma) [µM]	TGI (T-47D breast) [µM]	TGI (RXF 393 renal) [µM]	TGI (KM12 colon) [µM]	TGI (NCI-H522 lung) [µM]	TGI (UACC-62 melanoma) [µM]	TGI (A549 NSCLC) [µM]	TGI (SNB-75 CNS) [µM]	TGI (HCC-2998 colon) [µM]	TGI (SR leukemia) [µM]	TGI (SK-MEL-2 melanoma) [µM]	TGI (HS 578T breast) [µM]	TGI (SF-539 CNS) [µM]	TGI (XF 498 CNS) [µM]	TGI (CAKI-1 renal) [µM]	TGI (SNB-19 CNS) [µM]	TGI (K-562 leukemia) [µM]	TGI (BT-549 breast) [µM]
COC(=O)c1ccc(NCc2cc(O)ccc2O)cc1	19.5	37.1	23.7	3.4	20.2	29.6	2.06	27	39.2	38.9	29.5	> 32.4	36.1	18.5	13.5	9.63	37.4	70.5	15.1	2.63
COc1ccc(C(=O)Nc2ccc3oc(-c4ccccc4)nc3c2)cc1	> 100	> 100	> 100	> 100	> 100	> 100	> 100	> 100	> 100	89.8	> 100	> 100	> 100	> 100	> 100		> 100	> 100	> 100	> 100
CCC1CN2CCC3(c4ccccc4)CC(C(=O)OC)=CC1C23 (centres undefined)	31.9	34.1	30.2		33.6	28.2	27.2	30.2	35.8	51	30.7	> 100			31.3	18.2	33.1	35	24.9	
Cc1ccccc1N=NC(C(=O)c1ccccc1)C(=O)c1ccccc1	80.8	88.3	55.9			> 100	39	59.7	> 100	70.5	> 100		46.5		81.8	55.1	96.6	85.5	> 100	
C=CCn1c(-c2ccc(-c3cs/c(=N\N=O)n3CC=C)cc2)cs/c1=N\N=O	> 100	> 100	> 100	> 100	53	> 100	> 100	> 100	> 100	88.5	> 100	> 100	> 100	> 100	> 100		> 100	> 100	> 100	> 100
COc1ccc(CCNCCCC2c3ccccc3-c3ccccc32)cc1OC	29	30.8	23.3	34.3	26.1	30.4	30.1	30.3	31.4	27.2	3.88	24.2	17.9	39.8	30.8	28.2	33.4	31.8	49.2	35.6
